Results on one molecule are retold here after EP0536208B1, “1,2-DIHYDRO-3H-DIBENZISOQUINOLINE-1,3-DIONE ANTICANCER AGENTS” (RESEARCH CORPORATION TECHNOLOGIES, INC., priority 1990, dated 1992).

One experiment concerns M5-76 Sarcoma. Description: Tumor growth delay in mice, M5-76 sarcoma model. It is filed as in vivo. The note with it: -76 Sarcoma (Southern Research Institute). How it is done: (§1) Corbett, T.H., et al., Cancer Chemo Rep., 5 (1975). Mammary 16-C Adenocarcinoma and M5-76 Sarcoma: Chunks of tumor (20-50 mg) are subcutaneously implanted into the flank of B6C3F1 female mice. Drugs (10-45 mg/kg) are dissolved in saline and injected intraperitoneally every four days for three times starting one day after tumor implantation. Tumors are measured bidimensionally as described above and tumor growth delay is calculated at times to reach 1.5 and 3.0 g of tumor mass.

For experiment [1], the system named is P-388/ADR (adriamycin-Resis-tant). The experiment is described as follows: Survival study in tumor-bearing mice, P-388/adriamycin resistant model. The format is in vivo. The note with it: 10^6 cells in DBA mice; 15 mg/kg; d1,5,9; intraperitoneally. The text has this: (§2) Thus, in the lower level resistant cell lines, such as the ten-fold mitomycin C resistant L1210 and the tenfold adriamycin resistant 2780 ovarian cancer, Compound 1 maintained its complete activity as shown in Table II. The anti-tumor activity of compounds of the present invention in in vivo mouse murine models were studied. 3) Survival Studies In Tumor-Bearing Mice: 3.1 P-388 Leukemia Modles: One million P-388 leukemia cells originally obtained from American Type Culture Collection (Rockville, MD) are implanted into the peritoneum of adult DBA-2J male mice (Jackson Laboratories, Bar Harbor, ME). Twenty four hours later, drugs diluted in physiological saline are injected intraperitoneally at a volume of 0.1 mL/10 g body weight. The mice (10/group) are then followed for survival daily and compared to untreated tumor bearing mice. […] The perpendicular widths of the tumors are measured by caliper thrice weekly and converted to an estimated tumor mass according to the formula: ((1 X W)^2)/(2)= grams of tumor. [formula] wherein • W = width of tumor • l = length of tumor Tumor growth delay is calculated as the difference in days for tumors in treated mice to reach an estimated mass 750 mg or 1.5 g compared to that in untreated controls: Days to reach 750 mg (Treated - Control) = Days of Tumor Growth Delay [formula] […]

In experiment [2] the test system is 2780 Human Ovarian Cancer. The experiment is described as follows: In vitro tumor cell viability assay using MTT dye. The format is cell-based. The note with it: MTT dye reduction. The procedure:
(§3) Compounds of the present invention were tested for their in vitro activity in tumor cells sensitive and resistant to standard anti-cancer agents. The tumor cell lines used in this protocol are 8226 human Myeloma^1; 8226/Dox-40^2, L-1210/Murine Leukemia, multidrug resistant L-210/^3, 2780 Human Ovarian Cancer and 2780/AD^4. Each of these resistant cell lines is known as a multidrug resistant or "MDR" cell line. These cell lines produce a 170,00 molecular weight membrane protein termed the P-glycoprotein which acts as an active drug efflux pump. Thus, once a cell produces the P-glycoprotein, it has the capability of pumping out of the cell a large variety of unrelated natural products. […] The protocol for measuring the effectiveness of compounds of the present invention is as follows: 2) In Vitro Tumor Cell Viability Assays Using MTT-Dye: Tumors are processed into a single cell suspension as described above. The cells are plated at a concentration of 3-5 X 10^4/1 mL well into plastic 96-well plates. […] Afterwards the medium containing the drug is removed, the cells are "washed" by centrifugation in fresh medium or phosphate-buffered saline (pH 7.4). A tetrazolium dye is then added (3,4,5-dimethylthiazol-2-yl)-2,5-diphenyl tetrazolium bromide (MTT). This dye forms a colored formazan product upon activation by mitochondrial reductases in viable cells. Typically, the formazan product is solubilized in acid-propanol or DMSO. The intensity of the color is proportional to viable cell numbers and this is quantitated by spectrophotometric absorbance ([…]) on a micro ELISA plate reader. Test results are calibrated in % control absorbance from untreated tumor cells (Mossman T: J Immunol Meth 65:55-63, 1983). Using the above procedure, Compound 1 was tested for its cytotoxic activity with respect to various tumor cell lines.
In general terms: Tetrazolium dyes change colour on reduction, which living cells bring about.

The subject of experiment [3] is P-388 lymphocytic leukemia. The experiment is described as follows: Survival study in tumor-bearing mice, P-388 leukemia model. The note with it: 10^6 cells in DBA mice; 16 mg/kg; d1,5,9; intraperitoneally. The format is in vivo.
Description: as §2

The next experiment concerns SW80p105. Description: Activity against human colon tumor cells (MTT assay, 3 day drug exposure). The format is cell-based. The note with it: cells plated 24 hr. prior to drug addition, read-out: Concentration for 50% inhibition of colony formation for human colon tumors. How it is done:
(§4) For example, the compounds of the present invention were evaluated for cytotoxic activities in cloned human colon carcinomas. The clonogenic assays were conducted in accordance with the procedure described hereinbelow: 1) Colony Forming Assays in Soft Agar: Fresh human or murine tumors are disaggregated into single cell suspensions using mechanical, hypoosmotic and/or enzymatic (trypsin) methods. The single cells (about 5 X 10^4-10^5) are plated in 35 mm plastic petri dishes onto a 1 ml "feeder layer" of 0.3% agar dissolved in growth medium containing 5-10% vol/vol of heat-inactivated fetal bovine serum, molten 0.3% agar and the antibiotics penicillin (100 u/mL) and streptomycin (100 ug/mL). Drug exposures can be performed for one hour or continuously (drugs added to final plating medium). Tumor cell colonies > 60 uM in size are counted by automated image analysis after 10-20 days of incubation in a humidified, 5-10% CO2-gassed environment maintained at 37°C. Inhibition of colony formation is calculated based on comparisons to control (untreated) plates wherein the growth of hundreds of colonies/plate is typical. (Salmon SE, et al., N Engl J Med 298(24):1321-1327, 1978).
as §3

Another experiment concerns HT29p30. The experiment is described as above. The format is cell-based. The note with it: cells plated 24 hr. prior to drug addition, read-out: Concentration for 50% inhibition of colony formation for human colon tumors. How it is done:
as §4, §3

For a further experiment, the system named is Resistant L1210. Description: In vitro tumor cell viability assay using MTT dye. The format is cell-based, Murine. The note with it: for IC50: Mus musculus. The procedure:
as §3

Experiment [4] deals with 16-C Mammary Adenocarcinoma. The experiment is described as follows: Tumor growth delay in mice, Mammary 16-C model. The note with it: 16-C Mammary Adenocarcinoma (Southern Research Institute). It is filed as in vivo. The procedure:
as §1

Values after ≈ are worked out from the molar mass of the structure shown. Like-named read-outs stand apart in the source and are kept apart here.

For the molecule `CN(C)CCN1C(=O)c2cccc3cc4ccccc4c(c23)C1=O` [Compound 1, 2-[2'-(dimethylamino)ethyl]-1,2-dihydro-3H-dibenz(deh)isoquinoline-1,3-dione], the “Experimental Activity, Days of Tumor Growth Delay” value was determined as 7 days in the experiment with M5-76 Sarcoma and 7 days TT in experiment [4]. Also, the “Experimental Activity, ILS (Percentage Increased Lifespan)” value is 33 ILS in experiment [1] and 00:ILS* in experiment [3]. Also, the IC50 in experiment [2] came to 4000 ng/mL (≈ 12600 nM); with SW80p105, 150 nM; in the experiment with HT29p30, 340 nM; with Resistant L1210 (144 h, Resistant L1210, six day MTT assay, continuous drug exposure, read-out: Concentration for 50% inhibition of tumor cells), 2.5 ng/mL (≈ 7.85 nM); in the experiment with Resistant L1210 (L1210, 96 h, L-1210/ MDR, P-glycoprotein (+), 10-fold resistance to Mitomycin C, 4-day drug exposure, MTT dye reduction, read-out: Activity (IC50)), 3 ng/mL (≈ 9.42 nM); in the experiment on Resistant L1210 (L1210 Leukemia Cells Resistant, continuous exposure, MTT dye assay, read-out: IC50 VALUES), 2.5 ng/mL (≈ 7.85 nM). Besides, in the experiment with Resistant L1210 (resistant L-1210/ versus L-1210/Murine Leukemia), the “Cross Resistance” value is “None”.
